Assay results from the kinase profiling compilation of Christmann-Franck et al. (2016).

How the values were obtained:
Test in all cases: KINOMEscan competition binding
Settings in all cases: compound 10.0 µM
ACVRL1 (human) = ACVRL1 (human) (UniProt P37023)
CDK14 (human) = CDK14 (human) (UniProt O94921)
CDK15 (human) = CDK15 (human) (UniProt Q96Q40)
CDKL1 (human) = CDKL1 (human) (UniProt Q00532)
CHUK (human) = CHUK (human) (UniProt O15111)
DAPK1 (human) = DAPK1 (human) (UniProt P53355)
DCLK1 (human) = DCLK1 (human) (UniProt O15075)
DCLK2 (human) = DCLK2 (human) (UniProt Q8N568)
[1] = test system: EGFR (human), P00533 [752-759 del]
[2] = test system: EGFR (human), P00533 [A750P; 747-749 del]
[3] = test system: EGFR (human), P00533 [T790M]
EPHA7 (human) = EPHA7 (human) (UniProt Q15375)
Chain of EPHA7 (human) (Q15375 whole entry, looked up): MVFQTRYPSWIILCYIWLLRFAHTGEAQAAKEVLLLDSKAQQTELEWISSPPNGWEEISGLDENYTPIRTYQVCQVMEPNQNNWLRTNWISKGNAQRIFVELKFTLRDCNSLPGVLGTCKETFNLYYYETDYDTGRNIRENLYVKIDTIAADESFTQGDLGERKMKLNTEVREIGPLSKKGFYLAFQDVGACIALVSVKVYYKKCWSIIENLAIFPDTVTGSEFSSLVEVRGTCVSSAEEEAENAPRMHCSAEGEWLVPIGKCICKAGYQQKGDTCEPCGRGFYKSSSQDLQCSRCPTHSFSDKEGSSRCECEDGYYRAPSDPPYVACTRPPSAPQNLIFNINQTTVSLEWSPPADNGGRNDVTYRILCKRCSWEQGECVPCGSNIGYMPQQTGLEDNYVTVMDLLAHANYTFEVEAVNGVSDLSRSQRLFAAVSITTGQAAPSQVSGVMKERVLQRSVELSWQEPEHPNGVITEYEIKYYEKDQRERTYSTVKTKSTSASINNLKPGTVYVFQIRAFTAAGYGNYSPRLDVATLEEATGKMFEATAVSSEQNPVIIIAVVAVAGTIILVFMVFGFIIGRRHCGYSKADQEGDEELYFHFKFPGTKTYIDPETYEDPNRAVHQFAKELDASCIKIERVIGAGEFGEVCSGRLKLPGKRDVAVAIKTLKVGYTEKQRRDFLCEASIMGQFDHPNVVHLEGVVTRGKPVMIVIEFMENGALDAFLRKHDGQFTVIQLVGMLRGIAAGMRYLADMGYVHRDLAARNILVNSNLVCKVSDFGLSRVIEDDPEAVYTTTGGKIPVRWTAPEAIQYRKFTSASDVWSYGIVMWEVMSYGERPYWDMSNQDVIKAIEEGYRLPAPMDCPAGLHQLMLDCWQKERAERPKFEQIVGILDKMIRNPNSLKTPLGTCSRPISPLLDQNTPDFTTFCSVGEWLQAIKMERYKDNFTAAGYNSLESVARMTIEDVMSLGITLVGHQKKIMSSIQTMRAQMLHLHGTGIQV

EPHA8 (human) = EPHA8 (human) (UniProt P29322)
FGFR1 (human) = FGFR1 (human) (UniProt P11362)
Chain of FGFR1 (human) (P11362 whole entry, looked up): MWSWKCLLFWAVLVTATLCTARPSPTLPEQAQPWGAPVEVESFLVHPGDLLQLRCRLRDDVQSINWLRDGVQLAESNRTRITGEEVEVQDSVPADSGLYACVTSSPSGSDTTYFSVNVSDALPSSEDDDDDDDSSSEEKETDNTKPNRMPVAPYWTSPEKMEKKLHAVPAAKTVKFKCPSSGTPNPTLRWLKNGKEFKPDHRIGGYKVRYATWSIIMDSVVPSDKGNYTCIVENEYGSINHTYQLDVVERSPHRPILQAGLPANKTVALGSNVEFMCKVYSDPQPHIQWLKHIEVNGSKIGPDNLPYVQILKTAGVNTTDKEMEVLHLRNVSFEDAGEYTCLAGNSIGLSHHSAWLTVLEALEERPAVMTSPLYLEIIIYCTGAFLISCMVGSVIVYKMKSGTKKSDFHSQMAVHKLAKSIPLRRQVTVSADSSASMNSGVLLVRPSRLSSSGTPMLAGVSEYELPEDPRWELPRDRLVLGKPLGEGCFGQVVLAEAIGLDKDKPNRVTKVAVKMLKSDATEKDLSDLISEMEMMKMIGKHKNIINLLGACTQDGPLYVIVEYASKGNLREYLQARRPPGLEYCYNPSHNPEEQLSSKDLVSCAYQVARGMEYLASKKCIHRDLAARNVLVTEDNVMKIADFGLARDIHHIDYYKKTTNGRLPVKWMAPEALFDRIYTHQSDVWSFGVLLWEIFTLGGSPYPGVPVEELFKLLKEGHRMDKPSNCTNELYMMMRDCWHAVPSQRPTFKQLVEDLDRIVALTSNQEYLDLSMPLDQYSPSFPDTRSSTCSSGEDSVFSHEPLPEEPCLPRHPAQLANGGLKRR

[4] = test system: FLT3 (human), P36888 [K663Q]
[5] = biological target: JAK1 JH1 catalytic (human) (UniProt P23458)
[6] = test system: KIT (human), P10721 [L576P]
[7] = test system: KIT (human), P10721 [V559D]
MAP2K6 (human) = MAP2K6 (human) (UniProt P52564)
Chain of MAP2K6 (human) (P52564 whole entry, looked up): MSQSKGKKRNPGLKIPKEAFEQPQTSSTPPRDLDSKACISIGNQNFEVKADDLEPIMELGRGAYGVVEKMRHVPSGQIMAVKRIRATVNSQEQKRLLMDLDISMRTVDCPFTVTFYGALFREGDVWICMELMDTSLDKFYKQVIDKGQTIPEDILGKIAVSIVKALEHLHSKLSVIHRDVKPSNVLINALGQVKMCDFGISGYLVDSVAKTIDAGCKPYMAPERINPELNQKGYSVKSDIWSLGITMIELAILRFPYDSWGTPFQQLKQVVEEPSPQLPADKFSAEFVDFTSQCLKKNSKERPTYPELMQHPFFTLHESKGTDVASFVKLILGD

MAP3K7 (human) = MAP3K7 (human) (UniProt O43318)
MAP3K9 (human) = MAP3K9 (human) (UniProt P80192)
MAPK10 (human) = MAPK10 (human) (UniProt P53779)
MAST1 (human) = MAST1 (human) (UniProt Q9Y2H9)
Chain of MAST1 (human) (Q9Y2H9 whole entry, looked up): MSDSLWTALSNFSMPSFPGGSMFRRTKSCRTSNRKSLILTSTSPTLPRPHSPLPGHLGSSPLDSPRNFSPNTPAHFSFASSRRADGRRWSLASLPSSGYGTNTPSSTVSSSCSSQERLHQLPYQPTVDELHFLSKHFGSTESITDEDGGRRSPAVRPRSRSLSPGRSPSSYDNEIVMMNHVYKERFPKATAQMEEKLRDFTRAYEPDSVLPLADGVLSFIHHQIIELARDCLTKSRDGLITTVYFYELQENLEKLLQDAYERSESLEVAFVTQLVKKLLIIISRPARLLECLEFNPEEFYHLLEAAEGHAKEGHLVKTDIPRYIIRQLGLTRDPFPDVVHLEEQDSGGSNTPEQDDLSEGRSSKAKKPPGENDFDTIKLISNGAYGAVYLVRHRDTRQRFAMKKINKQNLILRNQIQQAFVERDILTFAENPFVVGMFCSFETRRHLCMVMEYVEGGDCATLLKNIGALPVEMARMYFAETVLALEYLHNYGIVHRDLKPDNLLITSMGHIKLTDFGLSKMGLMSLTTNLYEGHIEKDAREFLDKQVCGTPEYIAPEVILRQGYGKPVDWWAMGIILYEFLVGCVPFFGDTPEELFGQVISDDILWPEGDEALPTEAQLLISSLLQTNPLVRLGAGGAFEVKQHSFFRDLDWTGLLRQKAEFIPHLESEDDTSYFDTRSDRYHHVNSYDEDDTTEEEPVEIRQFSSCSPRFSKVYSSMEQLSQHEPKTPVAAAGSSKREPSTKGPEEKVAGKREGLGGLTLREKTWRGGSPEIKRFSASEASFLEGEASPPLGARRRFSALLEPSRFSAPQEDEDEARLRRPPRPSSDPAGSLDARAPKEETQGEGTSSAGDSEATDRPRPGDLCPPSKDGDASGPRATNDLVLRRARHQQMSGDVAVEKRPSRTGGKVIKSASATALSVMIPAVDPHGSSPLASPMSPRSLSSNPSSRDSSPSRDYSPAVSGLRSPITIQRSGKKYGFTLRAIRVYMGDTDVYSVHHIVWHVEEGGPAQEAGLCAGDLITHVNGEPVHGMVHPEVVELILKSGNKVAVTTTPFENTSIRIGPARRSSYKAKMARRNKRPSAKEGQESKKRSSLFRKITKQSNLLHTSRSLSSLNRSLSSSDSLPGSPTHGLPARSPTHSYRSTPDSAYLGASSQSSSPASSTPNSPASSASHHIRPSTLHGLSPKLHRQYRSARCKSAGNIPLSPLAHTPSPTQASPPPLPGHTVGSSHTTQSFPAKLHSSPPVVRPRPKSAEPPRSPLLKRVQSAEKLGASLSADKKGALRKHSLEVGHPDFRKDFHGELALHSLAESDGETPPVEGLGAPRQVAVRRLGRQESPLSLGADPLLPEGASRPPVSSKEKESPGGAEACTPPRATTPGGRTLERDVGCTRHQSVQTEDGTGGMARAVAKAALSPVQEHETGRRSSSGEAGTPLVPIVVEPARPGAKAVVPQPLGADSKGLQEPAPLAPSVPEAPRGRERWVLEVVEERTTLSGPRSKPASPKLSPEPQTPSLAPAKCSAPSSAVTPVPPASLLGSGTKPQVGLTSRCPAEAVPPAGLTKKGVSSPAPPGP

MERTK (human) = MERTK (human) (UniProt Q12866)
MINK1 (human) = MINK1 (human) (UniProt Q8N4C8)
NTRK2 (human) = NTRK2 (human) (UniProt Q16620)
PDGFRA (human) = PDGFRA (human) (UniProt P16234)
PI4KB (human) = PI4KB (human) (UniProt Q9UBF8)
PIM3 (human) = PIM3 (human) (UniProt Q86V86)
PRKAA2 (human) = PRKAA2 (human) (UniProt P54646)
PRKCI (human) = PRKCI (human) (UniProt P41743)
RPS6KA1 KD2 (human) = RPS6KA1 KD2 (human) (UniProt Q15418)
STK17A (human) = STK17A (human) (UniProt Q9UEE5)
STK24 (human) = STK24 (human) (UniProt Q9Y6E0)
STK3 (human) = STK3 (human) (UniProt Q13188)
SYK (human) = SYK (human) (UniProt P43405)
TAOK3 (human) = TAOK3 (human) (UniProt Q9H2K8)
Chain of TAOK3 (human) (Q9H2K8 whole entry, looked up): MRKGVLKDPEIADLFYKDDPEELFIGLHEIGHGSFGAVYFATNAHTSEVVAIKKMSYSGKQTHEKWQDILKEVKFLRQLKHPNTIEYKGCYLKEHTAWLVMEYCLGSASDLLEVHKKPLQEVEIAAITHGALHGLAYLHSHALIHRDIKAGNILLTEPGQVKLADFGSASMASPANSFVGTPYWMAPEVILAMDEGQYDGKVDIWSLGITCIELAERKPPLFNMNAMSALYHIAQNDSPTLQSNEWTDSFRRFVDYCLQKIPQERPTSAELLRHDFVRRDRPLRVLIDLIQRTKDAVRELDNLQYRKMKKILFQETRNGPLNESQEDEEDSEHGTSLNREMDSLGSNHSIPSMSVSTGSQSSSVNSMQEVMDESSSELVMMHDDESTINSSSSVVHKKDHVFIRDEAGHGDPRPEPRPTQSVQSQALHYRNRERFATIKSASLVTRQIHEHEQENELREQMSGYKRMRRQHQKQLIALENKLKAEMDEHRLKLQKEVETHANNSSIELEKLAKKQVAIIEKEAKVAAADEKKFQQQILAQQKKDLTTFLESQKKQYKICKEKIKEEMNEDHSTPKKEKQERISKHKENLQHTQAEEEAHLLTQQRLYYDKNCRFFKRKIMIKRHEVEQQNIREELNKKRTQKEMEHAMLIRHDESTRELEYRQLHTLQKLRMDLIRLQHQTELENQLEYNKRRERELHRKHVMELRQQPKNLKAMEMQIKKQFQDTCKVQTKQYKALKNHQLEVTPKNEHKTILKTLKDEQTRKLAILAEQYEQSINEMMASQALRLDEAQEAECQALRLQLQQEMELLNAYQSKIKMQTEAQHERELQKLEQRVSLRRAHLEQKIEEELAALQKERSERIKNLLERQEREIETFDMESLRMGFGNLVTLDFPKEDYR

TRPM6 (human) = TRPM6 (human) (UniProt Q9BX84)
WEE1 (human) = WEE1 (human) (UniProt P30291)
YSK4 (human) = YSK4 (human) (UniProt Q56UN5)
BTK (human) = BTK (human) (UniProt Q06187)

Chain of CDK14 (human) (O94921 whole entry, looked up): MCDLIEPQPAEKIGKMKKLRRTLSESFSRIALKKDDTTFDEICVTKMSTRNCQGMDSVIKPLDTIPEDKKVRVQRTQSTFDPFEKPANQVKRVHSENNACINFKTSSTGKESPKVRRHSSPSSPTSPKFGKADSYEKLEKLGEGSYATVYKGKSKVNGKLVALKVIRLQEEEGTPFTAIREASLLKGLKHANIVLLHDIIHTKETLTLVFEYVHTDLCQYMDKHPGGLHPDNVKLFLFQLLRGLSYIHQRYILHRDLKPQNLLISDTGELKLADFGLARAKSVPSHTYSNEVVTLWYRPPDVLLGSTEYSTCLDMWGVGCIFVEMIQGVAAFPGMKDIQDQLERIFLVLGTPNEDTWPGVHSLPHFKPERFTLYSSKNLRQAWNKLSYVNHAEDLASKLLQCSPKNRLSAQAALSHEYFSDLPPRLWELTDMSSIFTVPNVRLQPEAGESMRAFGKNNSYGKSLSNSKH

CCC(=O)N1CCN(c2ccc(-n3c(=O)ccc4cnc5ccc(-c6cnc7ccccc7c6)cc5c43)cc2C(F)(F)F)CC1
kinase still bound, per cent of control (ACVRL1 (human)): 83% | per cent of control (CDK14 (human)): 99% | per cent of control (CDK15 (human)): 88% | per cent of control (CDKL1 (human)): 100% | kinase still bound, per cent of control (CHUK (human)): 41% | kinase still bound, per cent of control (DAPK1 (human)): 96% | kinase still bound, per cent of control (DCLK1 (human)): 100% | kinase still bound, per cent of control (DCLK2 (human)): 100% | kinase still bound, per cent of control [1]: 84% | kinase still bound, per cent of control [2]: 100% | kinase still bound, per cent of control [3]: 100% | kinase still bound, per cent of control (EPHA7 (human)): 98% | kinase still bound, per cent of control (EPHA8 (human)): 71% | kinase still bound, per cent of control (FGFR1 (human)): 96% | kinase still bound, per cent of control [4]: 23% | kinase still bound, per cent of control [5]: 82% | kinase still bound, per cent of control [6]: 48% | kinase still bound, per cent of control [7]: 50% | kinase still bound, per cent of control (MAP2K6 (human)): 100% | kinase still bound, per cent of control (MAP3K7 (human)): 47% | kinase still bound, per cent of control (MAP3K9 (human)): 84% | kinase still bound, per cent of control (MAPK10 (human)): 31% | kinase still bound, per cent of control (MAST1 (human)): 93% | kinase still bound, per cent of control (MERTK (human)): 53% | kinase still bound, per cent of control (MINK1 (human)): 19% | kinase still bound, per cent of control (NTRK2 (human)): 81% | kinase still bound, per cent of control (PDGFRA (human)): 63% | kinase still bound, per cent of control (PI4KB (human)): 96% | kinase still bound, per cent of control (PIM3 (human)): 96% | kinase still bound, per cent of control (PRKAA2 (human)): 74% | kinase still bound, per cent of control (PRKCI (human)): 85% | kinase still bound, per cent of control (RPS6KA1 KD2 (human)): 100% | kinase still bound, per cent of control (STK17A (human)): 93% | kinase still bound, per cent of control (STK24 (human)): 100% | kinase still bound, per cent of control (STK3 (human)): 24% | kinase still bound, per cent of control (SYK (human)): 78% | kinase still bound, per cent of control (TAOK3 (human)): 76% | kinase still bound, per cent of control (TRPM6 (human)): 100% | kinase still bound, per cent of control (WEE1 (human)): 42% | kinase still bound, per cent of control (YSK4 (human)): 38%

CC(C)n1nc(-c2cc3cc(O)ccc3[nH]2)c2c(N)ncnc21
kinase still bound, per cent of control (ACVRL1 (human)): 6.7% | kinase still bound, per cent of control (BTK (human)): 22% | per cent of control (CDK14 (human)): 100% | per cent of control (CDK15 (human)): 96% | per cent of control (CDKL1 (human)): 100% | kinase still bound, per cent of control (CHUK (human)): 41% | kinase still bound, per cent of control (DAPK1 (human)): 3% | kinase still bound, per cent of control (DCLK1 (human)): 70% | kinase still bound, per cent of control (DCLK2 (human)): 100% | kinase still bound, per cent of control (EPHA7 (human)): 61% | kinase still bound, per cent of control (EPHA8 (human)): 1.2% | kinase still bound, per cent of control (FGFR1 (human)): 8.5% | kinase still bound, per cent of control [4]: 27% | kinase still bound, per cent of control [5]: 11% | kinase still bound, per cent of control [6]: 0.8% | kinase still bound, per cent of control [7]: 0.3% | kinase still bound, per cent of control (MAP2K6 (human)): 70% | kinase still bound, per cent of control (MAP3K7 (human)): 22% | kinase still bound, per cent of control (MAP3K9 (human)): 32% | kinase still bound, per cent of control (MAPK10 (human)): 72% | kinase still bound, per cent of control (MAST1 (human)): 87% | kinase still bound, per cent of control (MERTK (human)): 61% | kinase still bound, per cent of control (MINK1 (human)): 7.7% | kinase still bound, per cent of control (PDGFRA (human)): 2.2% | kinase still bound, per cent of control (PI4KB (human)): 2.4% | kinase still bound, per cent of control (PIM3 (human)): 31% | kinase still bound, per cent of control (PRKAA2 (human)): 67% | kinase still bound, per cent of control (PRKCI (human)): 52% | kinase still bound, per cent of control (RPS6KA1 KD2 (human)): 46% | kinase still bound, per cent of control (STK17A (human)): 81% | kinase still bound, per cent of control (STK24 (human)): 67% | kinase still bound, per cent of control (SYK (human)): 100% | kinase still bound, per cent of control (TAOK3 (human)): 4.7% | kinase still bound, per cent of control (TRPM6 (human)): 70% | kinase still bound, per cent of control (WEE1 (human)): 72% | kinase still bound, per cent of control (YSK4 (human)): 0%

COc1ccc(-c2ccc3c(N4CCOCC4)nc(N4C[C@@H](C)O[C@@H](C)C4)nc3n2)cc1CO
kinase still bound, per cent of control (ACVRL1 (human)): 100% | kinase still bound, per cent of control (BTK (human)): 100% | per cent of control (CDK14 (human)): 100% | per cent of control (CDK15 (human)): 95% | per cent of control (CDKL1 (human)): 100% | kinase still bound, per cent of control (CHUK (human)): 72% | kinase still bound, per cent of control (DAPK1 (human)): 95% | kinase still bound, per cent of control (DCLK1 (human)): 100% | kinase still bound, per cent of control (DCLK2 (human)): 100% | kinase still bound, per cent of control [1]: 100% | kinase still bound, per cent of control [2]: 100% | kinase still bound, per cent of control [3]: 100% | kinase still bound, per cent of control (EPHA7 (human)): 86% | kinase still bound, per cent of control (EPHA8 (human)): 80% | kinase still bound, per cent of control (FGFR1 (human)): 100% | kinase still bound, per cent of control [4]: 96% | kinase still bound, per cent of control [5]: 84% | kinase still bound, per cent of control [6]: 93% | kinase still bound, per cent of control [7]: 90% | kinase still bound, per cent of control (MAP2K6 (human)): 83% | kinase still bound, per cent of control (MAP3K7 (human)): 99% | kinase still bound, per cent of control (MAP3K9 (human)): 88% | kinase still bound, per cent of control (MAPK10 (human)): 81% | kinase still bound, per cent of control (MAST1 (human)): 100% | kinase still bound, per cent of control (MERTK (human)): 100% | kinase still bound, per cent of control (MINK1 (human)): 100% | kinase still bound, per cent of control (NTRK2 (human)): 73% | kinase still bound, per cent of control (PDGFRA (human)): 94% | kinase still bound, per cent of control (PI4KB (human)): 100% | kinase still bound, per cent of control (PIM3 (human)): 100% | kinase still bound, per cent of control (PRKAA2 (human)): 100% | kinase still bound, per cent of control (PRKCI (human)): 79% | kinase still bound, per cent of control (RPS6KA1 KD2 (human)): 100% | kinase still bound, per cent of control (STK17A (human)): 96% | kinase still bound, per cent of control (STK24 (human)): 89% | kinase still bound, per cent of control (STK3 (human)): 85% | kinase still bound, per cent of control (SYK (human)): 100% | kinase still bound, per cent of control (TAOK3 (human)): 90% | kinase still bound, per cent of control (TRPM6 (human)): 50% | kinase still bound, per cent of control (WEE1 (human)): 98% | kinase still bound, per cent of control (YSK4 (human)): 100%
